US5744355A, “cDNA cloning and expression of human liver estrogen sulfotransferase” (Mayo Foundation for Medical Education and Research, priority 1995, dated 1998)

B1: EST enzyme: recombinant human liver estrogen sulfotransferase (SEQ ID NO:2) expressed in COS-1 cells (protein)
chain: MNSELDYYEKFEEVHGILMYKDFVKYWDNVEAFQARPDDLVIATYPKSGTTWVSEIVYMIYKEGDVEKCKEDVIFNRIPFLECRKENLMNGVKQLDEMNSPRIVKTHLPPELLPASFWEKDCKIIYLCRNAKDVAVSFYYFFLMVAGHPNPGSFPEFVEKFMQGQVPYGSWYKHVKSWWEKGKSPRVLFLFYEDLKEDIRKEVIKLIHFLERKPSEELVDRIIHHTSFQEMKNNPSTNYTTLPDEIMNQKLSPFMRKGITGDWKNHFTVALNEKFDKHYEQQMKESTLKFRTEI

Legend:
[1] = target: T1, protein encoded by the human liver EST cDNA (Homo sapiens, UniProt P49888); assay: ST enzymatic activity after transfection of COS-1 cells with human liver EST cDNA in p91023(B); format: biochemical; settings: for sulfation catalyzed by the protein encoded by the human liver EST cDNA: approximate values, transfected COS-1 cells; for ST enzymatic activity, EST cDNA, Average: average of two experiments; for ST enzymatic activity, EST cDNA, Average / ST enzymatic activity, EST cDNA, Expt. 1: HSS of transfected COS-1 cells
T1 construct: made in house; host or cells: COS-1 (ATCC CRL-1650) cells transiently transfected with EST-p91023(B); 100,000 x g supernatant used
T1 sequence (P49888 1-294): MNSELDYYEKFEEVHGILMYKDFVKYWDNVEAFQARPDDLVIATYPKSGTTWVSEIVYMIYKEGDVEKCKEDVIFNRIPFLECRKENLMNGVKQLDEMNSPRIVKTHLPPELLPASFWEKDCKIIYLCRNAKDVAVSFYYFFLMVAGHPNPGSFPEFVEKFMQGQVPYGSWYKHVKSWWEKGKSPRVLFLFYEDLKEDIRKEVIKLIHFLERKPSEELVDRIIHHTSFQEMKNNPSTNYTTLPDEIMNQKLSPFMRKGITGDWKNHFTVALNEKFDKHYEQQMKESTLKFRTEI
Method: COS-1 (ATCC No. CRL-1650) cells were transfected with an EST cDNA expression construct in the eukaryotic expression vector p91023(B) as well as with vector alone using the DEAE-dextran method (H. Luthman et al., Nucleic Acids Res., 11, 1295-1308 (1983)). Specifically, the COS-1 cells were plated in 100-mm dishes in Dulbecco's modified Eagle's medium (DMEM) supplemented with 10% fetal calf serum (FCS) at a density of 1.2×10^6 cells/dish, and were grown overnight. The EST-p91023(B)construct, a control human liver DHEA ST-p91023(B) construct, p91023(B) with no insert, or only buffer were mixed with DEAE-dextran and DMEM and were added to the cell culture dishes (J. H. McCutchan et al., J. Natl. Cancer Inst., 41, 351 (1968); R. J. Kaufman et al., Mol. Cell. Biol., 2, 946 (1989)). After 1 hour, the DEAE-dextran solution was replaced for 2 minutes by DMEM that contained 10% dimethylsulfoxide (DMSO), followed by 0.1 mM chloroquine in DMEM for 2 hours (H. Luthman et al., Nucleic Acids Res., 11, 1295 (1983)). Cells were then grown for 48 hours in DMEM supplemented with 10% FCS. After harvesting, cell pellets were washed with 5 ml of phosphate buffered saline (PBS) and were homogenized for 30 seconds in 2 ml of 5 mM potassium phosphate buffer, pH 6.5. The homogenates were centrifuged at 12,000-15,000×g for 15 minutes at 4° C., and supernatants were collected and centrifuged at 100,000×g for 1 hour at 4° C. Five μl aliquots of the 100,000×g "high-speed supernatants" (HSS) were assayed for ST enzymatic activities (Example IV).
ST activities were measured in preparations of transfected COS- 1 cells using DHEA, 4- nitrophenol and dopamine, model substrates for DHEA ST, TS PST and TL PST, respectively (Example IV). The assays were performed under optimal conditions for the measurement of these three enzyme activities in human liver preparations (N. R. C. Campbell et al., Biochem. Pharmacol., 36, 1435-1446 (1987); J. S. Hernandez et al., Drug Metab. Dispos., 20, 413-422 (1992), both of which are incorporated herein by reference). The sulfation of estrone was measured using optimal conditions for the assay of EST activity of human EST enzyme (Example III(c)).
Estrone was used as the substrate to determine optimal assay conditions and, subsequently, to characterize the properties of human EST enzyme. […] Mg^2+ is known to increase the activities of several ST enzymes (J. S. Hernandez et al., Drug Metab. Dispos., 20, 413-422 (1992); I. A. Aksoy et al., Druc, Metab. Dispos., 21, 268-276 (1993)). […]

[2] = target: T2, recombinant human liver EST enzyme (Homo sapiens, UniProt P49888); assay: Substrate kinetics (apparent Km), COS-1 expressed EST enzyme; format: biochemical; design: made in house; host or cells: COS-1 (ATCC CRL-1650) cells transiently transfected with EST-p91023(B); 100,000 x g supernatant used; settings: compound as sulfate acceptor substrate; estrone 0.01 to 0.1 μM, DHEA 0.0125 to 32 μM
T2 sequence (P49888 1-294): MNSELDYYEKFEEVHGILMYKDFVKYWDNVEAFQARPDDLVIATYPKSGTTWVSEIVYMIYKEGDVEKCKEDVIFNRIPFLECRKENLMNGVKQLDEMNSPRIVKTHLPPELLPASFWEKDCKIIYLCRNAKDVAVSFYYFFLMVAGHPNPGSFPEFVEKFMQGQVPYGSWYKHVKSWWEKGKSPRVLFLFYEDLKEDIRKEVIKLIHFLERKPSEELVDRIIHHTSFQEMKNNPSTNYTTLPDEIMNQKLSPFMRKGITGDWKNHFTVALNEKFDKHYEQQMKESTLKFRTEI
Method: (§1) Total reaction assay volume was about 200 μl . […] The tubes were vortexed after each addition.
(§2) Substrate kinetic studies designed to estimate apparent Km values were performed utilizing the EST and DHEA ST activity assays described above and in Example III. Since human liver EST enzyme and DHEA ST enzyme can both catalyze the sulfation of steroids, these studies presented an opportunity to determine apparent Km values of the two enzymes with estrone and DHEA as substrates. Both enzyme preparations were tested with a range of estrone and DHEA concentrations (Table III).
(§3) Apparent Km values were calculated by the method of Wilkinson (Biochem. J., 80, 324-332 (1961)) with a computer program written by Cleland (Nature, 198, 463-465 (1963)).

[3] = target: T3, recombinant human liver DHEA ST enzyme (Homo sapiens, UniProt Q06520); assay: Substrate kinetics (apparent Km), COS-1 expressed DHEA ST enzyme; format: biochemical; design: made in house; host or cells: COS-1 cells transiently transfected with human liver DHEA ST-p91023(B); 100,000 x g supernatant used; settings: compound as sulfate acceptor substrate; estrone 0.2 to 100 μM, DHEA 0.06 to 10 μM
T3 sequence (Q06520 1-285): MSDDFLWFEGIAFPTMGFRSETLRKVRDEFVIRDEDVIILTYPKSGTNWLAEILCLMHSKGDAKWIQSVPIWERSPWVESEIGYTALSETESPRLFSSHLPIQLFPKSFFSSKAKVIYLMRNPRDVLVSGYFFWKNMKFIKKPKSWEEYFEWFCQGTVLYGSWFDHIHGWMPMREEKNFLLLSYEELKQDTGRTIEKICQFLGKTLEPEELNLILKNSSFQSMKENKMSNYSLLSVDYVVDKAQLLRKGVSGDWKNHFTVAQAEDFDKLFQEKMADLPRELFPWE
Method: as §1, §2, §3

human EST enzyme = target: T4, human EST enzyme (Homo sapiens, UniProt P49888); assay: Preferred substrate and optimal assay conditions for recombinant human EST enzyme; format: biochemical
T4 sequence (P49888 1-294): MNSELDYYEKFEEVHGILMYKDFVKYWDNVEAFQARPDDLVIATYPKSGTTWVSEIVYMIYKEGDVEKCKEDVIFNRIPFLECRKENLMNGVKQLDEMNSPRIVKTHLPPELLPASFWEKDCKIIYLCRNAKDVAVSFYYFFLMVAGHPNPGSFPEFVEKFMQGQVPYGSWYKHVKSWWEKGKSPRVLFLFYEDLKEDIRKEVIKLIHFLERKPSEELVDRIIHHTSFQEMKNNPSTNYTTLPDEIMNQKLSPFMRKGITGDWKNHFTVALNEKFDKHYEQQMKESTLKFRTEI
Method: Estrone was used as the substrate to determine optimal assay conditions and, subsequently, to characterize the properties of human EST enzyme. […] The optimal pH for the measurement of estrone ST activity with the expressed protein was approximately 6.5 in the presence of 8.2 mM potassium phosphate buffer. […] EST activity assays were subsequently performed on crude extracts from recombinant COS-1 cells expressing human EST enzyme using the optimal assay conditions thus identified: at a reaction pH of 6.5 in the presence of 1.25 mM MgCl2 with 0.05 μM estrone as the sulfate acceptor substrate, in 8.2 mM potassium phosphate buffer.

[4] = target: T3, recombinant human liver DHEA ST enzyme; settings: 75 mM NaCl; substrate DHEA
Method: The previously described EST and DHEA ST activity assays were used to measure ST activities of recombinant human liver EST enzyme and DHEA ST enzyme, respectively, wherein NaCl concentration in the reaction mixture was made 0.6 to 150 mM by the addition of 5 μL of a concentrated aqueous NaCl solution prior to incubation.

[5] = target: T2, recombinant human liver EST enzyme; settings: 150 mM NaCl; substrate estrone
From the text: Estrone was used as the substrate to determine optimal assay conditions and, subsequently, to characterize the properties of human EST enzyme. […] Mg^2+ is known to increase the activities of several ST enzymes (J. S. Hernandez et al., Drug Metab. Dispos., 20, 413-422 (1992); I. A. Aksoy et al., Druc, Metab. Dispos., 21, 268-276 (1993)).

[6] = Thermal inactivation of ST activity; format: physicochemical, human; settings: 15 minutes preincubation; mean ±SEM
Method: Aliquots of recombinant COS-1 cell extracts were incubated at 31°, 33°, 35°, 37°, 39°, 41°, 43° or 45° C. for 15 minutes prior to assay to determine thermal inactivation parameters. […] For the thermal inactivation experiment, aliquots of HSS from COS-1 cells transfected with EST cDNA or DHEA ST cDNA were diluted 1:2 (v/v) with 5 mM potassium phosphate buffer, pH 6.5, preincubated at various temperatures for 15 minutes and was then placed on ice. An aliquot of the same preparation was kept on ice as a control. Each aliquot was then diluted further for assay of the ST activity being measured. Values for controls were determined at each temperature studied. Data obtained during thermal inactivation and DCNP inhibition studies were analyzed with the GraphPAD InPlot curve-fitting program (GraphPAD InPlot Software, San Diego, Calif.).

[7] = first EST cDNA column, estrone 0.05 μM, DHEA 5 μM, 4-nitrophenol 4 μM, dopamine 60 μM, 1 unit = 1 nmol sulfated product per hour at 37° C.
[8] = second EST cDNA column, same substrate concentrations

| Molecule | sulfation catalyzed by the protein encoded by the human liver EST cDNA [1] | ST enzymatic activity, EST cDNA, Average [1] | ST enzymatic activity, EST cDNA, Expt. 1 [1, 7] | ST enzymatic activity, EST cDNA, Expt. 1 [1, 8] | other results |
| --- | --- | --- | --- | --- | --- |
| NCCc1ccc(O)c(O)c1 [Dopamine, dopamine] | not | 0.0 units/mg protein | 0.0 units/mg protein | 0.0 units/mg protein |  |
| C[C@]12CC[C@H](O)CC1=CC[C@@H]1[C@@H]2CC[C@]2(C)C(=O)CC[C@@H]12 [DHEA, dehydroepiandrosterone] | ~ 2 units/mg protein | 2.3 units/mg protein | 1.3 units/mg protein | 3.3 units/mg protein | Km [2]: 0.85 µM; Km [3]: 2.6 µM |
| [Cl-].[Cl-].[Mg+2] [Mg^2+, MgCl2] |  |  |  |  | increase of EST activity (human EST enzyme; 1.25 mM Mg2+, estrone as substrate): 20% |
| O=[N+]([O-])c1ccc(O)cc1 [4-Nitrophenol, 4-nitrophenol] | ~ 5 units/mg protein | 5.2 units/mg protein | 3.4 units/mg protein | 6.9 units/mg protein |  |
| C[C@]12CC[C@@H]3c4ccc(O)cc4CC[C@H]3[C@@H]1CCC2=O [Estrone] | ~ 9 units/mg protein | 8.8 units/mg protein | 6.0 units/mg protein | 11.5 units/mg protein | Km [2]: 0.17 µM; sulfotransferase activity relative to other sulfate acceptor substrates (human EST enzyme; compared with estradiol-17β, ethinyl estradiol, or DHEA): greater sulfotransferase activity; estrone concentration giving maximal enzymatic activity (human EST enzyme; range 0.01 to 0.10 μM tested): 0.05 µM; Km [3]: 3.1 µM |
| [Cl-].[Na+] [NaCl] |  |  |  |  | peak activation of DHEA ST activity [4]: 62%; increase of EST activity [5]: 86% |
| B1 |  |  |  |  | temperature at which 50% inactivation of activity occurred [6]: 38.2±0.12 °C |
